# Test results taken from ChEMBL document CHEMBL1765079, “Syntheses of 2-deoxy-2,3-didehydro-N-acetylneuraminic acid analogues modified by N-sulfonylamidino groups at the C-4 position and biological evaluation as inhibitors of human parainfluenza virus type 1” (Bioorg Med Chem, 2011).
# pIC50: −log10 of the molar value.
# Target: T1, Hemagglutinin-neuraminidase (Human parainfluenza virus 1, UniProt Q06992)
# T1 sequence (Q06992 whole entry): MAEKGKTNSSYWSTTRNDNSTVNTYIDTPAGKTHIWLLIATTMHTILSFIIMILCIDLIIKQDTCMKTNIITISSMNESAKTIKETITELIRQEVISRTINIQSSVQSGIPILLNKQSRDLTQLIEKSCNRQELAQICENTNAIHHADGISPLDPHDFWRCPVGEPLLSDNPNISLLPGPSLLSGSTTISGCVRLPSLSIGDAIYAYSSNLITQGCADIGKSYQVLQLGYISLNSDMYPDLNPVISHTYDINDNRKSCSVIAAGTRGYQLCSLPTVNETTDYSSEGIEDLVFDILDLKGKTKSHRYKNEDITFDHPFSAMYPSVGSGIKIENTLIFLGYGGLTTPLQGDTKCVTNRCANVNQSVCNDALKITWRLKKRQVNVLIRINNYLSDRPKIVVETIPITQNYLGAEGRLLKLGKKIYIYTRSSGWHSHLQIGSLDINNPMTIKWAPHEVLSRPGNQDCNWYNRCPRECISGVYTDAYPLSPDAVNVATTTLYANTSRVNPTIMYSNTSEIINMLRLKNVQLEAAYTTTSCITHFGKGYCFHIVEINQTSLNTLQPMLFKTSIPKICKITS
# Assay: Inhibition of Human parainfluenza virus 1 sialidase using N-acetyl-alpha-neuramic acid by fluorometric assay
# Set-up: species or system Human respirovirus 1
row,Structure (SMILES),pIC50
1,CCN(CC)/C(CCO[C@H]1C=C(C(=O)O)O[C@@H]([C@H](O)[C@H](O)CO)[C@@H]1NC(C)=O)=N/S(C)(=O)=O,2.82
2,CC(=O)N[C@H]1[C@H]([C@H](O)[C@H](O)CO)OC(C(=O)O)=C[C@@H]1OCCC(=Nc1ccccc1)NS(C)(=O)=O,3.10
3,CCN(CC)/C(CCO[C@H]1C=C(C(=O)O)O[C@@H]([C@H](O)[C@H](O)CO)[C@@H]1NC(C)=O)=N\S(=O)(=O)c1ccc(C)cc1,2.04
4,CC(=O)N[C@H]1[C@H]([C@H](O)[C@H](O)CO)OC(C(=O)O)=C[C@@H]1OCC/C(=N\S(=O)(=O)c1ccc(C)cc1)N(C(C)C)C(C)C,2.32
5,CC(=O)N[C@H]1[C@H]([C@H](O)[C@H](O)CO)OC(C(=O)O)=C[C@@H]1OCCC(=NC(C)C)NS(=O)(=O)c1ccc(C)cc1,2.11
6,CC(=O)N[C@H]1[C@H]([C@H](O)[C@H](O)CO)OC(C(=O)O)=C[C@@H]1N=C(Cc1ccccc1)NS(C)(=O)=O,2.68
7,CC(=O)N[C@H]1[C@H]([C@H](O)[C@H](O)CO)OC(C(=O)O)=C[C@@H]1N=C(Cc1ccc(F)cc1)NS(C)(=O)=O,2.80
8,CCCc1ccc(C/C(=N/S(C)(=O)=O)N[C@H]2C=C(C(=O)O)O[C@@H]([C@H](O)[C@H](O)CO)[C@@H]2NC(C)=O)cc1,2.80
9,CC(=O)N[C@H]1[C@H]([C@H](O)[C@H](O)CO)OC(C(=O)O)=C[C@@H]1N=C(CC1=CCCCC1)NS(C)(=O)=O,2.82
10,CC(=O)N[C@H]1[C@H]([C@H](O)[C@H](O)CO)OC(C(=O)O)=C[C@@H]1N=C(Cc1cccs1)NS(C)(=O)=O,2.70
11,CC(=O)N[C@H]1[C@H]([C@H](O)[C@H](O)CO)OC(C(=O)O)=C[C@@H]1N=C(C)NS(C)(=O)=O,1.80
12,"CC(=O)NC1[C@H](C(O)[C@H](O)CO)OC(C(=O)O)=C[C@@H]1O (single isomer, unassigned) [NEU5AC2EN]",3.52
